Assay results from ChEMBL document CHEMBL4219066, “Identification and Mitigation of Reactive Metabolites of 2-Aminoimidazole-Containing Microsomal Prostaglandin E Synthase-1 Inhibitors Terminated Due to Clinical Drug-Induced Liver Injury” (J Med Chem, 2018).

Legend:
[1] = Drug metabolism in human hepatocytes assessed as M2 metabolite formation at 2 uM after 4 hrs by LC-MS/MS analysis; format: ADME, cell-based, Hepatocyte
[2] = Drug metabolism in dog hepatocytes assessed as 2-(difluoromethyl)-5-((3-hydroxy-2,2-dimethylpropanamido)methyl)-N-(4-(hydroxymethyl)-5-(4-(trifluoromethyl)phenyl)-1H-imidazol-2-yl)nicotinamide formation at 2 uM after 4 hrs by LC-MS/MS analysis; format: ADME, cell-based, Canis lupus familiaris, Hepatocyte
[3] = Drug metabolism in dog hepatocytes assessed as M2 metabolite formation at 2 uM after 4 hrs by LC-MS/MS analysis; format: ADME, cell-based, Canis lupus familiaris, Hepatocyte
[4] = Drug metabolism in human liver microsomes assessed as M5 metabolite formation at 2 uM in presence of 1:1 ratio of unlabeled GSH and [glycine 13C2,15N]-labelled GSH after 0.5 hrs by HPLC-MS analysis; format: ADME, microsome
[5] = Drug metabolism in dog hepatocytes assessed as 2-(difluoromethyl)-5-((3-hydroxy-2,2-dimethylpropanamido)methyl)-N-(4-methyl-5-(4-(trifluoromethyl)phenyl)-1H-imidazol-2-yl)nicotinamide formation at 2 uM after 4 hrs by LC-MS/MS analysis; format: ADME, cell-based, Canis lupus familiaris, Hepatocyte
[6] = Drug metabolism in rat hepatocytes assessed as N-carbamimidoyl-2-(difluoromethyl)-5-(pivalamidomethyl)nicotinamide formation at 2 uM after 4 hrs by LC-MS/MS analysis; format: ADME, cell-based, Hepatocyte
[7] = Drug metabolism in rat hepatocytes assessed as M2 metabolite formation at 2 uM after 4 hrs by LC-MS/MS analysis; format: ADME, cell-based, Hepatocyte
[8] = Drug metabolism in Beagle dog plasma assessed as N-(4-methyl-5-(4-(trifluoromethyl)phenyl)-1H-imidazol-2-yl)acetamide formation at 300 to 600 mg/kg, po measured after 2 hrs post dose by LC/MS analysis; format: ADME, organism-based, Canis lupus familiaris; settings: in vivo
[9] = Drug metabolism in human liver microsomes assessed as metabolite M6 formation at 2 uM in presence of 1:1 ratio of unlabeled GSH and [glycine 13C2,15N]-labelled GSH after 0.5 hrs by HPLC-MS analysis; format: ADME, microsome
[10] = Drug metabolism in Sprague-Dawley rat plasma assessed as N-(4-methyl-5-(4-(trifluoromethyl)phenyl)-1H-imidazol-2-yl)acetamide formation at 1000 mg/kg, po measured after 2 hrs post dose by LC/MS analysis; format: ADME, organism-based; settings: in vivo
[11] = Drug metabolism in dog hepatocytes assessed as N-carbamimidoyl-2-(difluoromethyl)-5-(pivalamidomethyl)nicotinamide formation at 2 uM after 4 hrs by LC-MS/MS analysis; format: ADME, cell-based, Canis lupus familiaris, Hepatocyte
[12] = Drug metabolism in human liver microsomes assessed as metabolite M2 formation at 2 uM in presence of 1:1 ratio of unlabeled GSH and [glycine 13C2,15N]-labelled GSH after 0.5 hrs by HPLC-MS analysis; format: ADME, microsome
[13] = Drug metabolism in human hepatocytes assessed as N-carbamimidoyl-2-(difluoromethyl)-5-(pivalamidomethyl)nicotinamide formation at 2 uM after 4 hrs by LC-MS/MS analysis; format: ADME, cell-based, Hepatocyte
[14] = Drug metabolism in rat hepatocytes assessed as 2-(difluoromethyl)-5-((3-hydroxy-2,2-dimethylpropanamido)methyl)-N-(4-methyl-5-(4-(trifluoromethyl)phenyl)-1H-imidazol-2-yl)nicotinamide formation at 2 uM after 4 hrs by LC-MS/MS analysis; format: ADME, cell-based, Hepatocyte
[15] = Drug metabolism in human hepatocytes assessed as 2-(difluoromethyl)-5-((3-hydroxy-2,2-dimethylpropanamido)methyl)-N-(4-methyl-5-(4-(trifluoromethyl)phenyl)-1H-imidazol-2-yl)nicotinamide formation at 2 uM after 4 hrs by LC-MS/MS analysis; format: ADME, cell-based, Hepatocyte
[16] = Drug metabolism in Beagle dog plasma assessed as (2S,3S,4S,5R,6R)-3,4,5-trihydroxy-6-(4-methyl-5-(4-(trifluoromethyl)phenyl)-1H-imidazol-2-ylamino)tetrahydro-2H-pyran-2-carboxylic acid formation at 300 to 600 mg/kg, po measured after 2 hrs post dose by LC/MS analysis; format: ADME, organism-based, Canis lupus familiaris; settings: in vivo

Drug metabolism [1]: Metabolite_Detected
Drug metabolism [2]: Metabolite_Detected
Drug metabolism [3]: Metabolite_Detected
Drug metabolism [4]: Metabolite_Detected
Drug metabolism [5]: Metabolite_Detected
Drug metabolism [6]: Metabolite_Detected
Drug metabolism [7]: Metabolite_Detected
Drug metabolism [8]: Metabolite_Detected
Drug metabolism [9]: Metabolite_Detected
Drug metabolism [10]: Metabolite_Detected
Drug metabolism [11]: Metabolite_Detected
Drug metabolism [12]: Metabolite_Detected
Drug metabolism [13]: Metabolite_Detected
Drug metabolism [14]: Metabolite_Detected
Drug metabolism [15]: Metabolite_Detected
Drug metabolism [16]: Metabolite_Detected
Compound: Cc1nc(NC(=O)c2cc(CNC(=O)C(C)(C)C)cnc2C(F)F)[nH]c1-c1ccc(C(F)(F)F)cc1
